{"source": "patent US20230048888A1", "about": "“USE OF TRIAZOLOTRIAZINE DERIVATIVE IN TREATMENT OF DISEASES” (ZHEJIANG VIMGREEN PHARMACEUTICALS, LTD., priority 2019, published 2023)", "test": "Pharmacokinetics of acetate of Compound 22 in SD rats with single and repeated administration", "format": "in vivo", "conditions": "Sprague-Dawley, rat, plasma; for AUC(0-t): read-out: AUC0-t; for Cmax: read-out: Cmax; for half-life: read-out: T1/2 (converted); for Tmax: read-out: Tmax (median)", "method": "The formulation for Group 5 was prepared before administration on Day 1, and then, divided into daily doses and stored at 5±3° C. After taking out the formulations on the day of administration, the formulations should be let stand at room temperature for at least 30 minutes before administration.\nAfter blood collection, the blood collection tube containing the anticoagulant was turned upside down several times to mix well, and placed on wet ice before centrifugation. Within 60 minutes after blood collection, the samples were centrifuged at 2000 g for 10 minutes at 2-8° C. to separate red blood cells, thereby obtaining plasma samples. The plasma samples were transferred to cryovials and stored at −75±15° C. until analysis.\nBlood samples were collected from SD rats at room temperature before administration and within 24 hours after administration. All collected samples were placed on wet ice before centrifugation and stored at −75±15° C. until analysis.\nThe mass spectrometer was Applied Biosystems/AB Sciex Triple Quad 4500.\nPharmacokinetic data was calculated using the linear logarithmic trapezoidal method, with a weight of 1/(Y*Y). Samples with the sample concentration below the lower limit of quantification were excluded from the calculation of pharmacokinetic parameters. […] The mean time to peak (Tmax) was represented as a median.", "key": {"[1]": {"conditions": "both sexes, po, 63 mg/kg, Group 5 PO 63 mg/kg repeated, Day 7, Overall"}, "[2]": {"conditions": "both sexes, po, 189 mg/kg, Group 4 PO 189 mg/kg single, Overall"}, "[3]": {"conditions": "female, iv, 2 mg/kg, Group 1 IV 2.0 mg/kg single, Female"}, "[4]": {"conditions": "female, po, 21 mg/kg, Group 2 PO 21 mg/kg single, Female"}, "[5]": {"conditions": "female, po, 63 mg/kg, Group 3 PO 63 mg/kg single, Female"}, "[6]": {"conditions": "female, po, 63 mg/kg, Group 5 PO 63 mg/kg repeated, Day 1, Female"}, "[7]": {"conditions": "female, po, 63 mg/kg, Group 5 PO 63 mg/kg repeated, Day 7, Female"}, "[8]": {"conditions": "female, po, 189 mg/kg, Group 4 PO 189 mg/kg single, Female"}, "[9]": {"conditions": "male, iv, 2 mg/kg, Group 1 IV 2.0 mg/kg single, Male"}, "[10]": {"conditions": "male, po, 21 mg/kg, Group 2 PO 21 mg/kg single, Male"}, "[11]": {"conditions": "male, po, 63 mg/kg, Group 3 PO 63 mg/kg single, Male"}, "[12]": {"conditions": "male, po, 63 mg/kg, Group 5 PO 63 mg/kg repeated, Day 1, Male"}, "[13]": {"conditions": "male, po, 63 mg/kg, Group 5 PO 63 mg/kg repeated, Day 7, Male"}, "[14]": {"conditions": "male, po, 189 mg/kg, Group 4 PO 189 mg/kg single, Male"}}, "note": "Read-outs that look alike come from different tables or passages of the source.", "data": [{"smiles": "CC(=O)O.Nc1nc(NCCc2ccc(NC3COC3)cc2)nc2nc(-c3ccco3)nn12", "note": "[Acetate of Compound 22, 2-(furan-2-yl)-N5-(4-(oxetane-3-ylamino)phenethyl)-[1,2,4]triazolo[1,5-a][1,3,5]triazine-5,7-diamine acetate]", "values": [{"measurement": "AUC(0-t)", "setting": "[1]", "result": "127 ± 40.7", "unit": "µg·h/mL"}, {"measurement": "Cmax", "setting": "[1]", "result": "38300 ± 8840", "unit": "ng/mL"}, {"measurement": "half-life", "setting": "[1]", "result": "3.21 ± 0.615", "unit": "h"}, {"measurement": "Tmax", "setting": "[1]", "result": 1, "unit": "h"}, {"measurement": "AUC(0-t)", "setting": "[2]", "result": "241 ± 39.1", "unit": "µg·h/mL"}, {"measurement": "Cmax", "setting": "[2]", "result": "51800 ± 11800", "unit": "ng/mL"}, {"measurement": "half-life", "setting": "[2]", "result": "5.26 ± 3.05", "unit": "h"}, {"measurement": "Tmax", "setting": "[2]", "result": 2, "unit": "h"}, {"measurement": "AUC(0-t)", "setting": "[3]", "result": "5.85 ± 0.149", "unit": "µg·h/mL"}, {"measurement": "half-life", "setting": "[3]", "result": "4.7 ± 3.22", "unit": "h"}, {"measurement": "AUC(0-t)", "setting": "[4]", "result": "43.5 ± 4.15", "unit": "µg·h/mL"}, {"measurement": "Cmax", "setting": "[4]", "result": "20100 ± 3860", "unit": "ng/mL"}, {"measurement": "half-life", "setting": "[4]", "result": "3.73 ± 0.771", "unit": "h"}, {"measurement": "Tmax", "setting": "[4]", "result": 0.5, "unit": "h"}, {"measurement": "AUC(0-t)", "setting": "[5]", "result": "137 ± 40.4", "unit": "µg·h/mL"}, {"measurement": "Cmax", "setting": "[5]", "result": "30500 ± 9710", "unit": "ng/mL"}, {"measurement": "half-life", "setting": "[5]", "result": "2.91 ± 0.949", "unit": "h"}, {"measurement": "Tmax", "setting": "[5]", "result": 1, "unit": "h"}, {"measurement": "AUC(0-t)", "setting": "[6]", "result": "142 ± 23.1", "unit": "µg·h/mL"}, {"measurement": "Cmax", "setting": "[6]", "result": "37700 ± 2380", "unit": "ng/mL"}, {"measurement": "half-life", "setting": "[6]", "result": "2.4 ± 0.523", "unit": "h"}, {"measurement": "Tmax", "setting": "[6]", "result": 2, "unit": "h"}, {"measurement": "AUC(0-t)", "setting": "[7]", "result": "157 ± 36.9", "unit": "µg·h/mL"}, {"measurement": "Cmax", "setting": "[7]", "result": "45600 ± 1550", "unit": "ng/mL"}, {"measurement": "half-life", "setting": "[7]", "result": "2.73 ± 0.359", "unit": "h"}, {"measurement": "Tmax", "setting": "[7]", "result": 1, "unit": "h"}, {"measurement": "AUC(0-t)", "setting": "[8]", "result": "248 ± 55.6", "unit": "µg·h/mL"}, {"measurement": "Cmax", "setting": "[8]", "result": "59600 ± 12100", "unit": "ng/mL"}, {"measurement": "half-life", "setting": "[8]", "result": 7.63, "unit": "h"}, {"measurement": "Tmax", "setting": "[8]", "result": 1, "unit": "h"}, {"measurement": "AUC(0-t)", "setting": "[9]", "result": "4.87 ± 0.601", "unit": "µg·h/mL"}, {"measurement": "half-life", "setting": "[9]", "result": 1.43, "unit": "h"}, {"measurement": "AUC(0-t)", "setting": "[10]", "result": "42 ± 10.5", "unit": "µg·h/mL"}, {"measurement": "Cmax", "setting": "[10]", "result": "16600 ± 4100", "unit": "ng/mL"}, {"measurement": "half-life", "setting": "[10]", "result": "3.21 ± 0.304", "unit": "h"}, {"measurement": "Tmax", "setting": "[10]", "result": 0.5, "unit": "h"}, {"measurement": "AUC(0-t)", "setting": "[11]", "result": "87.3 ± 3.04", "unit": "µg·h/mL"}, {"measurement": "Cmax", "setting": "[11]", "result": "24200 ± 2340", "unit": "ng/mL"}, {"measurement": "half-life", "setting": "[11]", "result": "3.1 ± 0.251", "unit": "h"}, {"measurement": "Tmax", "setting": "[11]", "result": 1, "unit": "h"}, {"measurement": "AUC(0-t)", "setting": "[12]", "result": "79.7 ± 31.5", "unit": "µg·h/mL"}, {"measurement": "Cmax", "setting": "[12]", "result": "19900 ± 9080", "unit": "ng/mL"}, {"measurement": "half-life", "setting": "[12]", "result": "4.26 ± 2.04", "unit": "h"}, {"measurement": "Tmax", "setting": "[12]", "result": 1, "unit": "h"}, {"measurement": "AUC(0-t)", "setting": "[13]", "result": "98.1 ± 14.7", "unit": "µg·h/mL"}, {"measurement": "Cmax", "setting": "[13]", "result": "31000 ± 5750", "unit": "ng/mL"}, {"measurement": "half-life", "setting": "[13]", "result": "3.69 ± 0.342", "unit": "h"}, {"measurement": "Tmax", "setting": "[13]", "result": 1, "unit": "h"}, {"measurement": "AUC(0-t)", "setting": "[14]", "result": "235 ± 24.3", "unit": "µg·h/mL"}, {"measurement": "Cmax", "setting": "[14]", "result": "44100 ± 4710", "unit": "ng/mL"}, {"measurement": "half-life", "setting": "[14]", "result": "3.68 ± 1.22", "unit": "h"}, {"measurement": "Tmax", "setting": "[14]", "result": 4, "unit": "h"}]}]}
